# In patent US9328374B2, “Selective culture medium and method for detecting carbapenem-resistant bacteria in a test sample” (Institut National de la Sante et de la Recherche Medicale …, priority 2011, dated 2016):
# Experiments:
# E. coli = test: MIC of imipenem, ertapenem and meropenem; type: cell-based, Escherichia coli
# E. cloacae = test: MIC of imipenem, ertapenem and meropenem; type: cell-based, Enterobacter cloacae
# E. aerogenes = test: MIC of imipenem, ertapenem and meropenem; type: cell-based, Enterobacter aerogenes
# C. koseri = test: MIC of imipenem, ertapenem and meropenem; type: cell-based
# enterobacterial isolates = test: MIC of imipenem, ertapenem and meropenem (groups of isolates, other species); type: cell-based, Enterobacteriaceae
# P. rettgeri = test: MIC of imipenem, ertapenem and meropenem; type: cell-based, Providencia rettgeri
# C. freundii = test: MIC of imipenem, ertapenem and meropenem; type: cell-based, Citrobacter freundii
# P. stuartii = test: MIC of imipenem, ertapenem and meropenem; type: cell-based, Providencia stuartii
smiles,measurement,setting,value
"C[C@@H](O)[C@H]1C(=O)N2C(C(=O)O)=C(SCCN=CN)C[C@H]12 [IPM, imipenem]",MIC,"E. coli; strain E. coli ECA, ACC-1, non-carbapenemase producer",0.12 µg/mL
same,MIC,"E. coli; strain E. coli EVB, VEB-1, non-carbapenemase producer",0.12 µg/mL
same,MIC,"E. coli; strain E. coli FOR, CTX-M-15, non-carbapenemase producer",0.12 µg/mL
same,MIC,"E. coli; strain E. coli HB4, (OmpC-, OmpF-), non-carbapenemase producer",0.12 µg/mL
same,MIC,"E. coli; strain E. coli JAP, IMP-1",0.5 µg/mL
same,MIC,"E. coli; strain E. coli MAR, Overexpressed AmpC, non-carbapenemase producer",16 µg/mL
same,MIC,"E. coli; strain E. coli MET, Chromosome-encoded extended-spectrum cephalosporinase, non-carbapenemase producer",0.12 µg/mL
same,MIC,"E. coli; strain E. coli ROB, OXA-48",0.5 µg/mL
same,MIC,"E. coli; strain E. coli SYD, CMY-2, non-carbapenemase producer",0.12 µg/mL
same,MIC,"E. cloacae; E. cloacae 501, OXA-48 + TEM-1 + CTX-M-15",1 µg/mL
same,MIC,"E. cloacae; E. cloacae 1012, TEM-1 + SHV-12, non-carbapenemase producer",0.19 µg/mL
same,MIC,"E. cloacae; E. cloacae 1019, TEM-1, non-carbapenemase producer, overexpressed AmpC",0.25 µg/mL
same,MIC,"E. cloacae; E. cloacae 1027, TEM-1 + CTX-M-15, non-carbapenemase producer",0.19 µg/mL
same,MIC,"E. cloacae; E. cloacae 1072, TEM-1 + OXA-1, non-carbapenemase producer, overexpressed AmpC",0.38 µg/mL
same,MIC,E. cloacae; E. cloacae 5434 (wild type),0.38 µg/mL
same,MIC,"E. cloacae; E. cloacae 5434, (wild type), non-carbapenemase producer",0.38 µg/mL
same,MIC,"E. cloacae; E. cloacae 7725, (wild type), non-carbapenemase producer",0.19 µg/mL
same,MIC,"E. cloacae; E. cloacae 7746, (wild type), non-carbapenemase producer",0.38 µg/mL
same,MIC,E. cloacae; E. cloacae 10111 (TEM-1 + CTX-M-15),0.5 µg/mL
same,MIC,"E. cloacae; E. cloacae 10111, TEM-1 + CTX-M-15, non-carbapenemase producer, overexpressed AmpC",0.5 µg/mL
same,MIC,"E. cloacae; E. cloacae 1008029, VIM-1+ CTX-M-3",>32 µg/mL
same,MIC,"E. cloacae; E. cloacae 1008079, IMP-1",8 µg/mL
same,MIC,"E. cloacae; E. cloacae 1008187, IMP-1 + CTX-M-15",8 µg/mL
same,MIC,E. cloacae; E. cloacae (KPC-2),4 µg/mL
same,MIC,E. cloacae; E. cloacae ARF (overexpressed AmpC),0.12 µg/mL
same,MIC,"E. cloacae; E. cloacae ARF, Overexpressed AmpC, non-carbapenemase producer",0.12 µg/mL
same,MIC,E. cloacae; E. cloacae AZA (overexpressed AmpC),0.12 µg/mL
same,MIC,"E. cloacae; E. cloacae AZA, Overexpressed AmpC, non-carbapenemase producer",0.12 µg/mL
same,MIC,"E. cloacae; E. cloacae BEU, OXA-48 + TEM-1 + CTX-M-15 + SHV-12",0.5 µg/mL
same,MIC,E. cloacae; E. cloacae BLA (overexpressed AmpC),0.12 µg/mL
same,MIC,"E. cloacae; E. cloacae BLA, Overexpressed AmpC, non-carbapenemase producer",0.12 µg/mL
same,MIC,"E. cloacae; E. cloacae CFVL, KPC-2 + TEM-3",4 µg/mL
same,MIC,E. cloacae; E. cloacae CLO (CTX-M-15),0.12 µg/mL
same,MIC,"E. cloacae; E. cloacae CLO, CTX-M-15, non-carbapenemase producer",0.12 µg/mL
same,MIC,E. cloacae; E. cloacae CON (overexpressed AmpC),0.12 µg/mL
same,MIC,"E. cloacae; E. cloacae CON, Overexpressed AmpC, non-carbapenemase producer",0.25 µg/mL
same,MIC,E. cloacae; E. cloacae CVB (VEB-1),0.12 µg/mL
same,MIC,"E. cloacae; E. cloacae CVB, VEB-1, non-carbapenemase producer",0.12 µg/mL
same,MIC,"E. cloacae; E. cloacae HMG, KPC-2 + TEM-1",24 µg/mL
same,MIC,E. cloacae; E. cloacae HPTU (KPC-2 + TEM-1 + SHV-11),2 µg/mL
same,MIC,"E. cloacae; E. cloacae HPTU, KPC-2 + TEM-1 + SHV-11",2 µg/mL
same,MIC,E. cloacae; E. cloacae IR38 (NDM-1 + CTX-M-15),2 µg/mL
same,MIC,"E. cloacae; E. cloacae IR38, NDM-1 + CTX-M-15",2 µg/mL
same,MIC,"E. cloacae; E. cloacae KAR, VIM-1+ SHV-70",1 µg/mL
same,MIC,E. cloacae; E. cloacae TAW (IMP-8 + SHV-12),0.75 µg/mL
same,MIC,"E. cloacae; E. cloacae TAW, IMP-8 + SHV-12",0.75 µg/mL
same,MIC,E. cloacae; E. cloacae TUR (OXA-48 + SHV-5),0.5 µg/mL
same,MIC,"E. cloacae; E. cloacae TUR, OXA-48 + SHV-5",0.5 µg/mL
same,MIC,"E. cloacae; E. cloacae TWA, IMP-8",1.5 µg/mL
same,MIC,"E. cloacae; strain E. cloacae 10111, TEM-1 + CTX-M-15, non-carbapenemase producer",0.5 µg/mL
same,MIC,"E. cloacae; strain E. cloacae BLA, Overexpressed AmpC, non-carbapenemase producer",0.12 µg/mL
same,MIC,"E. cloacae; strain E. cloacae CLO, CTX-M-15, non-carbapenemase producer",0.12 µg/mL
same,MIC,"E. cloacae; strain E. cloacae CON, Overexpressed AmpC, non-carbapenemase producer",0.12 µg/mL
same,MIC,"E. cloacae; strain E. cloacae CVB, VEB-1, non-carbapenemase producer",0.12 µg/mL
same,MIC,"E. cloacae; strain E. cloacae HPTU, KPC-2 + TEM-1 + SHV-11",2 µg/mL
same,MIC,"E. cloacae; strain E. cloacae TAW, IMP-8 + SHV-12",0.75 µg/mL
same,MIC,"E. cloacae; strain E. cloacae TUR, OXA-48 + SHV-5",0.5 µg/mL
same,MIC,"E. aerogenes; E. aerogenes 1009, TEM-24, non-carbapenemase producer",0.19 µg/mL
same,MIC,E. aerogenes; E. aerogenes 1085 (TEM-24),0.12 µg/mL
same,MIC,"E. aerogenes; E. aerogenes 1085, TEM-24, non-carbapenemase producer",0.12 µg/mL
same,MIC,"E. aerogenes; strain E. aerogenes 1085, TEM-24, non-carbapenemase producer",0.12 µg/mL
same,MIC,"C. koseri; C. koseri ROU, OXA-48",0.38 µg/mL
same,MIC,C. koseri; C. koseri VER (OXA-48),0.75 µg/mL
same,MIC,"C. koseri; C. koseri VER, OXA-48",0.75 µg/mL
same,MIC,"C. koseri; strain C. koseri VER, OXA-48",0.75 µg/mL
same,MIC,"enterobacterial isolates; S. marcescens 0911033, IMP-1",>32 µg/mL
same,MIC,"enterobacterial isolates; S. marcescens 1008091, VIM-1+ CTX-M-15",>32 µg/mL
same,MIC,"enterobacterial isolates; S. marcescens C7052, KPC-2 + TEM-1 + SHV-12",>32 µg/mL
same,MIC,"enterobacterial isolates; S. marcescens D6403, KPC-2 + TEM-1",>32 µg/mL
same,MIC,P. rettgeri; P. rettgeri RAP (OXA-181 + OXA-1),8 µg/mL
same,MIC,"P. rettgeri; P. rettgeri RAP, OXA-181 + OXA-1",8 µg/mL
same,MIC,"P. rettgeri; strain P. rettgeri RAP, OXA-181 + OXA-1",8 µg/mL
same,MIC,"C. freundii; C. freundii 1003, CTX-M-15 + TEM-1, non-carbapenemase producer",0.38 µg/mL
same,MIC,C. freundii; C. freundii 7767 (wild type),0.25 µg/mL
same,MIC,"C. freundii; C. freundii 7767, (wild type), non-carbapenemase producer",0.25 µg/mL
same,MIC,C. freundii; C. freundii 10107 (TEM-1 + SHV-12),0.38 µg/mL
same,MIC,"C. freundii; C. freundii 10107, TEM-1 + SHV-12, non-carbapenemase producer",0.38 µg/mL
same,MIC,C. freundii; C. freundii 10135 (CTX-M-15),0.38 µg/mL
same,MIC,"C. freundii; C. freundii 10135, CTX-M-15, non-carbapenemase producer",0.38 µg/mL
same,MIC,C. freundii; C. freundii MAU (Overexpressed AmpC + TEM-3),1 µg/mL
same,MIC,"C. freundii; C. freundii MAU, Overexpressed AmpC + TEM-3, non-carbapenemase producer",1 µg/mL
same,MIC,C. freundii; C. freundii STE (NDM-1 + OXA-1 + OXA-9 + OXA-10 + CTX-M-15 + TEM-1),>32 µg/mL
same,MIC,"C. freundii; C. freundii STE, NDM-1 + TEM-1 + CTX-M-15 + VIM-4 + OXA-1 + OXA-9 + OXA-10 + OXA-181",>32 µg/mL
same,MIC,"C. freundii; strain C. freundii 10107, TEM-1 + SHV-12, non-carbapenemase producer",0.38 µg/mL
same,MIC,"C. freundii; strain C. freundii 10135, CTX-M-15, non-carbapenemase producer",0.38 µg/mL
same,MIC,"C. freundii; strain C. freundii MAU, Overexpressed AmpC + TEM-3, non-carbapenemase producer",1 µg/mL
same,MIC,P. stuartii; P. stuartii NDM (NDM-1 + OXA-1 + CMY-6),12 µg/mL
same,MIC,P. stuartii; P. stuartii PS1 (NDM-1 + CMY-6 + OXA-1),12 µg/mL
same,MIC,"P. stuartii; P. stuartii PS1, NDM-1 + CMY-6 + OXA-1",12 µg/mL
same,MIC,"P. stuartii; strain P. stuartii PS1, NDM-1 + CMY-6 + OXA-1",12 µg/mL
